# Laboratory results published in US8232253B2, “Treatment of lung cancer” (Ramot at Tel-Aviv University Ltd., priority 2006, dated 2012).
# What was measured:
# A549 cells [1] = test: A549-cell-implanted nude mouse model, tumor growth; type: in vivo, nude mice
# Protocol: Nude mice (6 weeks old) were housed in barrier facilities on a 12-h light/dark cycle. Food and water were supplied ad libitum. On day zero, A549 or HTB-58 cells (5×10^6 cells in 0.1 ml PBS) were implanted subcutaneously (s.c.) just above the right femoral joint. After 5 or 11 days the mice were separated randomly into control groups that had received only the vehicle and FTS-treated groups. Daily FTS treatments were administered either intraperitoneally (i.p.) or orally. Tumor volumes or weights were determined as described in Barkan, B., Starinsky, S., Friedman, E., Stein, R., Kloog, Y., Clin Cancer Res 12:5533-42 (2006). Gemcitabine treatment (36 mg/kg, i.p.) was administered every 4 days.
# To determine whether FTS inhibited tumor growth in vivo, experiments were conducted using a nude mouse model. The lung cancer cells were implanted s.c. above the right femoral joint and the mice were then treated with FTS. In a first experiment, the effect of i.p. administration of FTS on tumor growth in A549 cells was assessed. Treatment was started 5 days after cell implantation, by which time the tumors were palpable. Tumor volumes were determined 24 days after implantation in two groups of mice (n=8) that had received daily i.p. administration of either the vehicle (control) or 10 mg/kg FTS.
# In an additional set of experiments, the A549-cell-implanted nude mouse model was used to examine the effect of orally administered FTS on tumor growth. First, cells were implanted as described above and daily oral treatment with FTS (50 mg/kg; n=6) or vehicle (n=5) was started either 11 days (FIG. 14C) or 6 days (FIG. 14D) after implantation. […] Next, the effects of orally administered FTS, alone or in combination with gemcitabine, on A549-cell tumor growth was examined (FIG. 14D). Six days after cell implantation, mice were divided into four groups (n=8 per group) and treated orally with vehicle alone (control), FTS alone (60 mg/kg), vehicle and gemcitabine (36 mg/kg, i.p. every 4 days), or FTS and gemcitabine. Treatments with gemcitabine began 1 week after FTS treatment was started.
# A549 cells [2] = test: BrdU incorporation into DNA; type: cell-based; conditions: Homo sapiens, 75 μM FTS, 48 h, read-out: inhibition of incorporation of BrdU into DNA relative to vehicle-treated control
# Protocol: A549 cells were plated on glass cover slips (1.2×10^5 cells/well in 6-well plates) and incubated for 24 h in medium containing 5% FCS. The cells were then incubated for 24 h with or without 75 μM FTS and then for 24 h with 5-bromo-2-deoxyuridine (BrdU) (Zymed BrdU labeling kit, 1:100 dilution). Cells were fixed with 4% paraformaldehyde, permeabilized with 0.2% Triton X-100 (BDH, Poole, UK), washed with PBS, blocked with TBS Tween (TBST; 50 mM Tris, pH 7.4, 100 mM NaCl, 0.1% Tween 20) containing 1% bovine serum albumin (BSA), treated sequentially with 2 N HCl and 0.1 M sodium borate pH 8.5, and then blocked with goat γ-globulin and washed with TBST-BSA (described above). The cells were then labeled successively with mouse anti-BrdU antibody (Ab) (Zymed kit; 1:50 dilution), biotinylated rabbit anti mouse IgG (5 μg/ml), and Cy3-streptavidin (1.5 μg/ml). Cells with BrdU-stained nuclei were counted under a fluorescence microscope.
# To investigate the effect of FTS on lung cancer cell proliferation, we first incubated A549 cells that harbor the activated K-ras gene mutated at codon 12. A549 cells are commonly used as a model for drug screening. […] The number of cells in the FTS-treated cultures was determined by direct counting of A549 cells grown for 6 days in the presence of FTS and was expressed as a percentage of the number recorded in the controls. […]
# phospho-ERK = test: Phospho-ERK immunoblotting in A549 cells; type: cell-based, human
# Protocol: A549 cells were incubated for 24 or 48 h with or without FTS, as described above, and then lysed with lysis buffer as described in Haklai, R., Gana-Weisz, M., Elad, G., et al., Biochemistry 37:1306-14 (1998). The apparent amounts of K-Ras-GTP in 0.5 mg protein of total cell lysates were determined by the glutathione-S-transferase (GST)-RBD (Ras-binding domain of Raf) pull-down assay, as described in (Elad-Sfadia, G., Haklai, R., Ballan, E., Gabius, H. J., Kloog, Y., J Biol Chem 277:37169-75 (2002). The apparent amounts of Rac1-GTP and of RhoA-GTP, each in 2 mg protein of total cell lysates, were determined, respectively, by pull-down assays with GST-PBD (Rac1-binding domain of PAK1)-conjugated and GST-Rhotekin BD (Rho-binding domain of Rhotekin)-conjugated beads [Benard, V., Bohl, B. P., Bokoch, G. M, J Biol Chem 274:13198-204 (1999); Fiordalisi, J. J., Keller, P. J., Cox, A. D., Cancer Res 66:3153-61 (2006). […] Levels of phospho-ERK and phospho-Akt were determined by immunoblotting [Haklai, R., Gana-Weisz, M., Elad, G., et al., supra.] using rabbit anti phospho-ERK1/2 Ab (Santa Cruz Biotechnology, Santa Cruz, Calif.) and rabbit anti phospho-Akt Ab (Cell Signaling, Beverly, Mass.). Protein bands were visualized by enhanced chemiluminescence and quantified by densitometry using ImageJ computer software (National institutes of Health, Bethesda, Md.). […]
# [3] = 50 mg/kg FTS oral daily from day 11, after 16 days of treatment (FIG. 14C)
# [4] = 60 mg/kg FTS oral alone, from day 6 (FIG. 14D)
structure (smiles),measurement,setting,value
"CC(C)=CCC/C(C)=C/CC/C(C)=C/CSc1ccccc1C(=O)O [FTS, S-farnesylthiosalicylic acid]",inhibition of tumor growth relative to control (tumor volume),"A549 cells [1]; 10 mg/kg FTS i.p. daily from day 5, 24 days after implantation",53.8%
same,inhibition in tumor growth,A549 cells [1]; [3],53.7±19.1%
same,tumor weight (mean±SD),A549 cells [1]; [3],0.4 ± 0.19 g
same,inhibition in tumor growth,A549 cells [1]; [4],46.2±16.3%
same,tumor weight (mean±SD),A549 cells [1]; [4],0.49 ± 0.15 g
same,inhibition at 75 µM,A549 cells [2],56.7 ± 17.4%
same,inhibition of phospho-ERK level,phospho-ERK,33±2%
